Among the data in ChEMBL document CHEMBL1153382 (J Med Chem, 2009) are Emax, Ratio EC50 and Activity values, retold here.

For experiment [1], the target named is T1, 5-hydroxytryptamine receptor 2C (Homo sapiens) (UniProt P28335).
T1 sequence (whole entry): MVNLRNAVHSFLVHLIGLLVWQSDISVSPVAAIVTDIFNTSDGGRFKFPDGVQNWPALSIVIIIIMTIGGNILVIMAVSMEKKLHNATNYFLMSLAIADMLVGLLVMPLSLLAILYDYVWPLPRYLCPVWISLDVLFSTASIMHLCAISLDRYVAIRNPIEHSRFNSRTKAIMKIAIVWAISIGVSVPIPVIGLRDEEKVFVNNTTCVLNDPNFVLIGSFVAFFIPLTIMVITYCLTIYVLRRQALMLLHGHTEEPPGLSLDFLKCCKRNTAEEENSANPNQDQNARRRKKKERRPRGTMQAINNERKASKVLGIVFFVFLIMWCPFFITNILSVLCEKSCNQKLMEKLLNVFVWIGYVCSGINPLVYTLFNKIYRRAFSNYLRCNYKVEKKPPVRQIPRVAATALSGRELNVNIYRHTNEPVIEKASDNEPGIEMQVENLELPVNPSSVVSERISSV
Briefly: Agonist activity at human 5HT2C receptor expressed in HEK293 cells at 10 uM assessed as calcium flux by FLIPR assay relative to serotonin. Format: functional, cell-based.

The target in experiment [2] is Serotonin 2 receptors; 5-HT2a & 5-HT2c (Homo sapiens) (UniProt P28223+P28335). Briefly: Selectivity ratio of EC50 for human 5HT2A receptor to EC50 for human 5HT2C receptor.
Chain of Serotonin 2 receptors; 5-HT2a & 5-HT2c (Homo sapiens) (P28223 whole entry, looked up, one chain of several): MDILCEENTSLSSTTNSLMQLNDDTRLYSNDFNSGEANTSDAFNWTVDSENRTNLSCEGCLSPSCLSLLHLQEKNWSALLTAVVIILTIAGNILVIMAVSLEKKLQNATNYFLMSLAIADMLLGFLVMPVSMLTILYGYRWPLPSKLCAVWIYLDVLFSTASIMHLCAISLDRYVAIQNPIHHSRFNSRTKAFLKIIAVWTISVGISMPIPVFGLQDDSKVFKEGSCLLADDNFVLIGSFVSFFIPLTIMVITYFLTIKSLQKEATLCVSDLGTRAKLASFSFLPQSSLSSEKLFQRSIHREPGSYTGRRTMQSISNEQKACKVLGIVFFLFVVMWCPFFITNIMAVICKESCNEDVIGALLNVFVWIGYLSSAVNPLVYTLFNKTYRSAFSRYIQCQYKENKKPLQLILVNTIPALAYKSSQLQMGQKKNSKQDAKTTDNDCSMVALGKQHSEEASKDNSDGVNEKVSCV
Experiment [3] is filed under the species Homo sapiens. Description: Selectivity ratio of EC50 for human 5HT2B receptor to EC50 for human 5HT2C receptor.
The target of experiment [4] is 5-hydroxytryptamine receptor 2B (Homo sapiens, UniProt P41595). Briefly: Agonist activity at human 5HT2B receptor expressed in HEK293 cells at 10 uM assessed as calcium flux by FLIPR assay relative to serotonin. In kind it is functional, cell-based.
Chain of 5-hydroxytryptamine receptor 2B (P41595 whole entry): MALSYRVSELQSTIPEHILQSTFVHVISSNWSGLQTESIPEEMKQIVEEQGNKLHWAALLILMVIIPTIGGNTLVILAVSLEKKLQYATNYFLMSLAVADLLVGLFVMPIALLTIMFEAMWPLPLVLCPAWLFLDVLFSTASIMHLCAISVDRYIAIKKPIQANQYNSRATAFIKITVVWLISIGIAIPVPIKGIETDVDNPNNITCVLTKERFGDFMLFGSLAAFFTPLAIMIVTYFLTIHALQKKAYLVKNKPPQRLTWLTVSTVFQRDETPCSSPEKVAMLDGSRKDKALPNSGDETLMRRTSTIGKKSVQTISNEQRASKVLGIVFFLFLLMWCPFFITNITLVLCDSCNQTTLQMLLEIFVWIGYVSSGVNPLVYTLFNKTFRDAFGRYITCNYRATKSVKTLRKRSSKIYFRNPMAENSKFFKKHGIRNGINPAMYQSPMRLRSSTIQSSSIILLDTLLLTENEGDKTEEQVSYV
Experiment [5] deals with T2, 5-hydroxytryptamine receptor 2A (Homo sapiens, UniProt P28223). Description: Agonist activity at human 5HT2A receptor expressed in HEK293 cells at 10 uM assessed as calcium flux by FLIPR assay relative to serotonin. In kind it is functional, cell-based. Background: Calcium assays in cells follow changes in intracellular calcium, usually with a dye or a luminescent sensor.
T2 sequence (P28223 whole entry): as the sequence (P28223 whole entry, looked up, one chain of several) above

The target in experiment [6] is T2, 5-hydroxytryptamine receptor 2A. Briefly: Agonist activity at human 5HT2A receptor expressed in HEK293 cells assessed as calcium flux by FLIPR assay. In kind it is functional, cell-based.

Each structure is given as a SMILES string. Active and inactive are the calls of the source. No cut-off for these calls is given here. Where only a bound is given, the exact number is not on record here.

The Emax is the size of the effect at its maximum, as opposed to the concentration needed. On to `Cc1ccc([C@H]2C[C@@H]2CN)c(Br)c1` (relative stereo), for which the Emax in experiment [1] came out at 84%; in experiment [4], 68%; in experiment [5], 62%. Besides, the Ratio EC50 in experiment [2] came out at 4.8; in experiment [3] it was 1.2.

`Cc1cccc(Cl)c1[C@H]1C[C@@H]1CN` (relative stereo): the Emax in experiment [1] was found to be 97%; in experiment [4], 90%; in experiment [5] it was 56%. The Ratio EC50 in experiment [2] came out at 207; in experiment [3] it was 2.

Take `NC[C@H]1C[C@@H]1c1ccccc1F` (relative stereo): the results for the Emax in experiment [1], in experiment [4] and in experiment [5] were 91%, 65% and 52%, respectively. The Ratio EC50 in experiment [2] amounted to 20; in experiment [3] it was 2.1.

`NC[C@H]1C[C@@H]1c1cccc(O)c1` (relative stereo): the results for the Emax in experiment [1], in experiment [4] and in experiment [5] were 94%, 98% and 92%, respectively. Further, the Ratio EC50 in experiment [2] amounted to 75; in experiment [3], 1.7.

On to `NC[C@H]1C[C@@H]1c1ccccc1C(F)(F)F` (relative stereo), for which the outcome in experiment [6] was inactive. For the same compound, the values for the Emax in experiment [1], in experiment [4] and in experiment [5] were 101%, 102% and less than 12%, respectively. The Ratio EC50 in experiment [3] was determined as 7.2.

With `NC[C@H]1C[C@@H]1c1ccc(C(F)(F)F)cc1` (relative stereo), in experiment [6], the result was inactive. For the same compound, the maximal effect (Emax) in experiment [1] was 91%; in experiment [4], 56%; in experiment [5] it was less than 12%.

`Cc1cccc([C@H]2C[C@@H]2CN)c1C` (relative stereo): the Emax came to 107% in experiment [1], 90% in experiment [4] and 59% in experiment [5]. Besides, the results for the Ratio EC50 in experiment [2] and in experiment [3] were 52 and 1.2, respectively.

Take `NC[C@H]1C[C@@H]1c1cccc(Br)c1` (relative stereo): the Emax in experiment [1] was found to be 90%; in experiment [4], 74%; in experiment [5], 55%. Also, the Ratio EC50 was determined as 123 in experiment [2] and 10 in experiment [3].

On to `NC[C@@H]1C[C@H]1c1ccccc1` (relative stereo), for which the figures for the Emax in experiment [1], in experiment [4] and in experiment [5] were 96%, 93% and 74%, respectively. Further, the results for the Ratio EC50 in experiment [2] and in experiment [3] were 106 and 6, respectively.

As to `COc1cccc([C@H]2C[C@@H]2CN)c1` (relative stereo), the Emax in experiment [1] was determined as 97%; in experiment [4], 96%; in experiment [5], 90%. The Ratio EC50 stood at 39 in experiment [2] and 4.8 in experiment [3].

As for `NC[C@H]1C[C@@H]1c1cccc(F)c1` (relative stereo), the Emax in experiment [1] came to 92%; in experiment [4], 87%; in experiment [5], 71%. Besides, the Ratio EC50 in experiment [2] came to 131; in experiment [3], 1.1.

As to `NC[C@H]1C[C@@H]1c1ccc(Cl)cc1` (relative stereo), the maximum response (Emax) is 106% in experiment [1], 80% in experiment [4] and 64% in experiment [5]. In addition, the values for the Ratio EC50 in experiment [2] and in experiment [3] were 59 and 5.3, respectively.

On to `Cc1cc([C@H]2C[C@@H]2CN)ccc1F` (relative stereo), for which the Emax in experiment [1] turned out to be 91%; in experiment [4], 83%; in experiment [5], 73%. The Ratio EC50 in experiment [2] came to 39; in experiment [3], 0.83.

With `NC[C@H]1C[C@@H]1c1ccc(F)cc1F` (relative stereo), the Emax in experiment [1] was 98%; in experiment [4] it was 88%; in experiment [5], 85%. Moreover, the Ratio EC50 in experiment [2] is 13; in experiment [3], 9.9.

On to `NC[C@H]1C[C@@H]1c1ccc(F)c(F)c1` (relative stereo), for which the Emax in experiment [1] turned out to be 103%; in experiment [4], 96%; in experiment [5] it was 96%. Further, the results for the Ratio EC50 in experiment [2] and in experiment [3] were 64 and 3.2, respectively.

With `NC[C@H]1C[C@H]1c1ccccc1` (racemic), the result in experiment [6] was inactive. Besides, the maximal effect (Emax) in experiment [1] was 104%; in experiment [4], 20%; in experiment [5], less than 12%.

Consider `NC[C@H]1C[C@@H]1c1ccccc1Cl` (relative stereo), for which the Emax in experiment [1] worked out at 94%; in experiment [4], 82%; in experiment [5], 54%. The Ratio EC50 stood at 31 in experiment [2] and 5.8 in experiment [3].

On to `NC[C@H]1C[C@@H]1c1ccc2ccccc2c1` (relative stereo), for which the result in experiment [6] was inactive. Moreover, the Emax is 60% in experiment [1], 21% in experiment [4] and less than 12% in experiment [5]. The Ratio EC50 in experiment [3] was 0.18.

With `NC[C@H]1C[C@@H]1c1ccc(Cl)cc1F` (relative stereo), the results for the Emax in experiment [1], in experiment [4] and in experiment [5] were 94%, 86% and 83%, respectively. Also, the Ratio EC50 in experiment [2] amounted to 6.1; in experiment [3], 3.6.

Take `COc1ccccc1[C@H]1C[C@@H]1CN` (relative stereo): the Emax was determined as 93% in experiment [1], 83% in experiment [4] and 61% in experiment [5]. Besides, the results for the Ratio EC50 in experiment [2] and in experiment [3] were 84 and 7.7, respectively.

On to `Cc1ccc(Cl)c([C@H]2C[C@@H]2CN)c1F` (relative stereo), for which the figures for the Emax in experiment [1], in experiment [4] and in experiment [5] were 117%, 74% and 65%, respectively. Moreover, the Ratio EC50 in experiment [2] was 26; in experiment [3] it was 9.2.

Turning to `NC[C@H]1C[C@@H]1c1ccc(Cl)cc1Cl` (relative stereo), the Emax was 98% in experiment [1], 89% in experiment [4] and 88% in experiment [5]. The results for the Ratio EC50 in experiment [2] and in experiment [3] were 2.9 and 4.7, respectively.

In the case of `NC[C@H]1C[C@@H]1c1c(F)cccc1F` (relative stereo), the results for the Emax in experiment [1], in experiment [4] and in experiment [5] were 85%, 58% and 38%, respectively. Besides, the values for the Ratio EC50 in experiment [2] and in experiment [3] were more than 11 and 39, respectively.

Take `NC[C@H]1C[C@@H]1c1ccccc1O` (relative stereo): the Emax in experiment [1] was found to be 94%; in experiment [4], 74%; in experiment [5] it was 81%. The figures for the Ratio EC50 in experiment [2] and in experiment [3] were 3.2 and 3.1, respectively.

In the case of `Cc1ccccc1[C@H]1C[C@@H]1CN` (relative stereo), the maximum response (Emax) amounted to 99% in experiment [1], 86% in experiment [4] and 69% in experiment [5]. The Ratio EC50 in experiment [2] is 71; in experiment [3], 2.3.

For `NC[C@H]1C[C@@H]1c1cccc(Cl)c1Cl` (relative stereo), the results for the Emax in experiment [1], in experiment [4] and in experiment [5] were 96%, 89% and 77%, respectively. For the same compound, the results for the Ratio EC50 in experiment [2] and in experiment [3] were 33 and 1.4, respectively.

Consider `NC[C@H]1C[C@@H]1c1cccc(Cl)c1` (relative stereo), for which the Emax was determined as 98% in experiment [1], 78% in experiment [4] and 42% in experiment [5]. For the same compound, the Ratio EC50 in experiment [2] is 189; in experiment [3], 5.9.

For the compound `NC[C@H]1C[C@@H]1c1cccc(F)c1F` (relative stereo), the results for the Emax in experiment [1], in experiment [4] and in experiment [5] were 101%, 93% and 45%, respectively. In addition, the Ratio EC50 in experiment [2] was more than 50; in experiment [3], 3.7.

With `Cc1ccc([C@H]2C[C@@H]2CN)cc1` (relative stereo), the Emax in experiment [1] came out at 69%; in experiment [4], 79%; in experiment [5], 18%. In addition, the Ratio EC50 was found to be 14 in experiment [2] and 0.28 in experiment [3].

For `Cc1ccc([C@H]2C[C@@H]2CN)cc1C` (relative stereo), the Emax in experiment [1] worked out at 97%; in experiment [4] it was 78%; in experiment [5], 40%. In addition, the Ratio EC50 in experiment [2] was found to be 68; in experiment [3], 0.33.

`NC[C@H]1C[C@@H]1c1cccc(C(F)(F)F)c1` (relative stereo): the Emax in experiment [1] was 94%; in experiment [4], 78%; in experiment [5], 35%. Also, the Ratio EC50 in experiment [2] is 50; in experiment [3] it was 2.6.

Regarding `NC[C@H]1C[C@@H]1c1ccc(Br)cc1` (relative stereo), the Emax in experiment [1] turned out to be 87%; in experiment [4], 51%; in experiment [5] it was 26%. Also, the values for the Ratio EC50 in experiment [2] and in experiment [3] were more than 7 and 20, respectively.

Take `CNC[C@H]1C[C@@H]1c1ccccc1` (racemic): in experiment [6], the result was inactive. For the same compound, the Emax in experiment [1] is 101%; in experiment [4], 26%; in experiment [5], less than 12%.

`NC[C@@H]1C[C@H]1c1ccccc1`: the outcome in experiment [6] was inactive. In addition, the Emax in experiment [1] is 102%; in experiment [4], 72%; in experiment [5], less than 12%. Besides, the Ratio EC50 in experiment [3] was 3.4.
